Experimental data as given in patent US20180296530A1, “METHOD FOR TREATING ATOPIC DERMATITIS” (priority 2015, published 2018).

Columns and labels:
[1] = tested on: DNCB-induced AD mouse model; assay: Example 5: histological examination of skin (H&E, toluidine blue, anti-CD3); format: in vivo, Balb/c mice; conditions: for Cumulative histological scores: positive control 14.8 ± 2.4; for Hyperplasia, epidermis and follicular epithelium, slight to moderate/severe: incidence / Hyperplasia, sebaceous gland and hair follicle, dermis and subcutis, slight to moderate: incidence / Inflammation, neutrophil, lymphocyte and mast cell, epidermis, dermis and subcutis, minimal to severe/high: incidence / Infundibular hyperkeratosis, hair follicle, dermis, minimal to slight: incidence / Necrosis, epidermis, slight: incidence / Pustule, epidermis, slight: incidence / Serocellular crust/parakeratosis, epidermis, slight: incidence / Vacuolization, epidermis, minimal to slight: incidence: skin, Day 20, 5 mice
Description: The protocol for establishing an AD mouse model in this Example was modified from those described previously. Briefly, referring to FIG. 4, DNCB-induced AD mouse model was prepared by the repeated applications of 20 μL of 1% DNCB in acetone/olive oil (4:1) to the outer and inner surfaces of mouse ears and 100 μL of the same solution to the shaved back skin once on days 1, 2, and 3. Mice of Control group were treated with the identical volumes of vehicle.
The DNCB-sensitized mice were randomly assigned to one of three groups: DNCB (Positive control), DNCB+3% topical melatonin (Treatment: low-dose), DNCB+5% topical melatonin (Treatment: high-dose). Each group (including Control group) consisted of 5 mice. From days 9 to 19, sensitized mice were challenged by applying 0.5% DNCB to the skin surfaces. For the two groups treated with topical melatonin groups, 0.3 mg of topical melatonin ointment (3% or 5% melatonin in Vaseline) was given together with DNCB during the challenge period. For DNCB group, 0.3 mg of Vaseline was given together with DNCB during the challenge period. For Control group, 0.3 mg of Vaseline was given from days 9 to 19. This experiment was ended at Day 20.
At the end of the experiment (Day 20), all the experimental animals were subjected to euthanization by carbon dioxide and the skin samples were collected for subsequent immunological and histological examinations. The skin of each mouse were fixed with 10% neutral-buffered formalin, and embedded in paraffin. Then, 4-μm-thick sections were cut and transferred onto slides. Deparaffinized skin sections were stained with hematoxylin and eosin (H&E) before they were examined at 200× magnification for evaluation of edema and polymorphonuclear leukocytes (PMN) number. To detect mast cell infiltration, deparaffinized skin sections were stained with toluidine blue. Polyclonal rabbit antibody against CD3 was used to stain T cells. The numbers of mast cells and T cells per 10 high power fields (HPF) were counted.
Further, degree of histopathological lesions of skin from each mouse was graded from one to five depending on severity: 1=minimal (<1%); 2=slight (1-25%); 3=moderate (26-50%); 4=moderate/severe (51-75%); and 5=severe/high (76-100%).

[2] = tested on: Patients aged 1 to 18 years with physician-diagnosed AD; assay: Randomized double-blind placebo-controlled crossover clinical trial: AD severity by SCORAD index; format: in vivo, human; parameters: key to mean SCORAD index, first treatment period, before / mean SCORAD index, first treatment period, after: SCORAD index, range 1-103, higher = worse symptoms; key to Objective SCORAD index, Difference: objective SCORAD, range 0-83, higher = worse symptoms
Description: A randomized clinical study with a double-blind, placebo-controlled crossover design was performed. The institutional review committee of National Taiwan University Hospital approved the study protocol. This study conformed to the principles of the Declaration of Helsinki. Patients or their guardians provided written informed consent. Patients aged 1 to 18 years with physician-diagnosed AD involving at least 5% of the total body surface area were recruited from the pediatric and dermatology outpatient departments of the National Taiwan University Hospital from Aug. 1, 2012, through Jan. 31, 2013. Follow-up was completed on Apr. 13, 2013. Those patients with sleep problems occurring more than 3 days per week during the previous 3 months were eligible. The study participants were randomly assigned to 2 groups in a 1:1 ratio, with a block size of 4. One group received melatonin first and then placebo, and the other group received placebo first and then melatonin. The melatonin and placebo tablets were identical in appearance. The participants and their caregivers, treating physicians, those assessing outcomes, and those analyzing the data were all masked to group assignment. […] They were then randomized to receive oral melatonin, 3 mg/d (General Nutrition Corporation), or placebo (Standard Chem & Pharm Co, Ltd) at bedtime for 4 weeks. After a 2-week washout period, participants crossed to the alternate treatment. In this clinical trial, the primary study outcome was the Scoring Atopic Dermatitis (SCORAD) index for the evaluation of AD severity. Secondary outcomes included the objective sleep variables measured by actigraphy, the patient's subjective description of the change in sleep and dermatitis severity, the sleep variables measured by polysomnography, nocturnal urinary levels of 6-sulfatoxymelatonin, and serumtotal and allergen-specific IgE levels. Severity of AD was assessed using the SCORAD index (range, 1-103, with greater scores indicating worse symptoms) by the same physician (Y.-S.C.) blinded to the treatment randomization. The SCORAD index includes subjective visual analog scale scores from 0 to 10 (with greater numbers indicating worse symptoms) for degree of pruritus and sleep loss, which are referred to as the pruritus score and the subjective sleep score, respectively, in this study. The objective SCORAD index, which excludes the SCORAD score for subjective symptoms (range, 0-83, with greater scores indicating worse symptoms), was also used for analysis.

[3] = Treatment (high-dose): DNCB+5% topical melatonin, mean±SD, graded one to five
[4] = Treatment (high-dose): DNCB+5% topical melatonin
[5] = Treatment (low-dose): DNCB+3% topical melatonin, mean±SD, graded one to five
[6] = Treatment (low-dose): DNCB+3% topical melatonin
[7] = after vs before oral melatonin 3 mg/d, 4 weeks, mean
[8] = melatonin vs placebo, adjusted for age and sex

SMILES: COc1ccc2[nH]cc(CCNC(C)=O)c2c1 [Melatonin, melatonin]
- pathology scoring vs DNCB group ([1]; 3% melatonin, p=0.04): significant improvement
- number of anti-CD3 positive cells per 10 HPF ([1]; 3% topical melatonin compared with DNCB group, p=0.03): significantly reduced
- pathology scoring vs DNCB group ([1]; 5% melatonin, p=0.02): significant improvement
- number of anti-CD3 positive cells per 10 HPF ([1]; 5% topical melatonin compared with DNCB group, p=0.0007): significantly reduced
- Hyperplasia, epidermis and follicular epithelium, slight to moderate/severe: lesion score [1, 3]: 2.0 ± 0.0
- Hyperplasia, sebaceous gland and hair follicle, dermis and subcutis, slight to moderate: lesion score [1, 3]: 2.4 ± 0.5
- Inflammation, neutrophil, lymphocyte and mast cell, epidermis, dermis and subcutis, minimal to severe/high: lesion score [1, 3]: 3.8 ± 0.4
- Necrosis, epidermis, slight: lesion score [1, 3]: 0.4 ± 0.9
- Serocellular crust/parakeratosis, epidermis, slight: lesion score [1, 3]: 2.0 ± 0.0
- Vacuolization, epidermis, minimal to slight: lesion score [1, 3]: 0.8 ± 0.4
- Cumulative histological scores ([1]; Treatment (high-dose): DNCB+5% topical melatonin, mean±SD): 11.4 ± 1.1
- Hyperplasia, epidermis and follicular epithelium, slight to moderate/severe: incidence [1, 4]: 5/5
- Hyperplasia, sebaceous gland and hair follicle, dermis and subcutis, slight to moderate: incidence [1, 4]: 5/5
- Inflammation, neutrophil, lymphocyte and mast cell, epidermis, dermis and subcutis, minimal to severe/high: incidence [1, 4]: 5/5
- Infundibular hyperkeratosis, hair follicle, dermis, minimal to slight: incidence [1, 4]: 0
- Necrosis, epidermis, slight: incidence [1, 4]: 1/5
- Pustule, epidermis, slight: incidence [1, 4]: 0
- Serocellular crust/parakeratosis, epidermis, slight: incidence [1, 4]: 5/5
- Vacuolization, epidermis, minimal to slight: incidence [1, 4]: 4/5
- Hyperplasia, epidermis and follicular epithelium, slight to moderate/severe: lesion score [1, 5]: 2.4 ± 0.5
- Hyperplasia, sebaceous gland and hair follicle, dermis and subcutis, slight to moderate: lesion score [1, 5]: 2.0 ± 0.0
- Inflammation, neutrophil, lymphocyte and mast cell, epidermis, dermis and subcutis, minimal to severe/high: lesion score [1, 5]: 3.8 ± 0.4
- Infundibular hyperkeratosis, hair follicle, dermis, minimal to slight: lesion score [1, 5]: 0.8 ± 0.8
- Serocellular crust/parakeratosis, epidermis, slight: lesion score [1, 5]: 2.0 ± 0.0
- Vacuolization, epidermis, minimal to slight: lesion score [1, 5]: 0.6 ± 0.5
- Cumulative histological scores ([1]; Treatment (low-dose): DNCB+3% topical melatonin, mean±SD): 11.6 ± 1.8
- Hyperplasia, epidermis and follicular epithelium, slight to moderate/severe: incidence [1, 6]: 5/5
- Hyperplasia, sebaceous gland and hair follicle, dermis and subcutis, slight to moderate: incidence [1, 6]: 5/5
- Inflammation, neutrophil, lymphocyte and mast cell, epidermis, dermis and subcutis, minimal to severe/high: incidence [1, 6]: 5/5
- Infundibular hyperkeratosis, hair follicle, dermis, minimal to slight: incidence [1, 6]: 3/5
- Necrosis, epidermis, slight: incidence [1, 6]: 0
- Pustule, epidermis, slight: incidence [1, 6]: 0
- Serocellular crust/parakeratosis, epidermis, slight: incidence [1, 6]: 5/5
- Vacuolization, epidermis, minimal to slight: incidence [1, 6]: 3/5
- mast cell infiltration (toluidine blue) ([1]; after melatonin treatment, FIG. 8): decreased
- H&E staining of the skin ([1]; both the 3% and 5% melatonin treatment group, FIG. 6): improved epidermal hyperplasia and less infiltration of lymphocytes
- SCORAD index vs placebo, Wilcoxon signed rank test ([2]; FIGS. 2A and 2C, sensitivity analysis): apparently decreased the SCORAD index
- patients who subjectively believed that their dermatitis had improved ([2]; after melatonin treatment, 17 of 36 (placebo 12 of 38 [32%])): 47%
- Subjective sleep score, After ([2]; after oral melatonin 3 mg/d at bedtime for 4 weeks, mean): 3.8
- Pruritus score, After ([2]; after oral melatonin 3 mg/d at bedtime for 4 weeks, mean, score 0 to 10): 5.1
- Objective SCORAD index, After ([2]; after oral melatonin 3 mg/d at bedtime for 4 weeks, mean, score 0 to 83): 31.3
- SCORAD index, After ([2]; after oral melatonin 3 mg/d at bedtime for 4 weeks, mean, score 0 to 103): 40.2
- Objective SCORAD index, Difference [2, 7]: −8.2
- Pruritus score, Difference [2, 7]: −0.6
- SCORAD index, Difference [2, 7]: −9.9
- Subjective sleep score, Difference [2, 7]: −1.1
- mean reduction of the SCORAD index ([2]; in 4 weeks, oral melatonin 3 mg/d): 9.9
- decrease of the SCORAD index compared with placebo ([2]; linear mixed-effects model, adjusted for age and sex): 9.1
- decrease of the objective SCORAD index compared with placebo ([2]; linear mixed-effects model, no significant carryover effect (P=0.81), significant period effect (P=0.02)): 8.7
- mean SCORAD index, first treatment period, after ([2]; melatonin group, first treatment period, after oral 3 mg/d for 4 weeks): 42.3
- mean SCORAD index, first treatment period, before ([2]; melatonin group, first treatment period, before treatment): 49.5
- mean SCORAD index, second treatment period, after ([2]; melatonin group, second treatment period, after oral 3 mg/d for 4 weeks): 38.3
- mean SCORAD index, second treatment period, before ([2]; melatonin group, second treatment period, before treatment): 48.7
- Subjective sleep score, Before ([2]; melatonin phase, before treatment, mean): 4.8
- Pruritus score, Before ([2]; melatonin phase, before treatment, mean, score 0 to 10): 5.6
- Objective SCORAD index, Before ([2]; melatonin phase, before treatment, mean, score 0 to 83): 38.6
- SCORAD index, Before ([2]; melatonin phase, before treatment, mean, score 0 to 103): 49.1
- Objective SCORAD index, Difference of Treatment Effect From the Linear Mixed-Effects Model, Mean [2, 8]: −8.7
- Pruritus score, Difference of Treatment Effect From the Linear Mixed-Effects Model, Mean [2, 8]: 0.0
- SCORAD index, Difference of Treatment Effect From the Linear Mixed-Effects Model, Mean [2, 8]: −9.1
- Subjective sleep score, Difference of Treatment Effect From the Linear Mixed-Effects Model, Mean [2, 8]: −0.4
